Reference: patent US20240173329A1, “BELVARAFENIB FOR USE IN TREATMENT OF BRAIN CANCERS” (Genentech, Inc., priority 2021, published 2024)
“Also recorded” adds a separate entry of the source. Where two headings read alike, the source gives them in different places.

Experiments:
[1] = cited from earlier work; for B/P (nonclinical), percentage of brain exposure relative to plasma: mice, literature
P-gp/BCRP = conditions: literature, cited from earlier work
[2] = system: patients who harbored a BRAF, NRAS, or KRAS mutation; conditions: cited from earlier work
[3] = system: human tumor xenograft models; conditions: highest doses tested; cited from earlier work
[4] = healthy subjects; cited from earlier work
[5] = concentration-independent; cited from earlier work
MDR1 (ABCB1/P-gp) [6] = target: T1, MDR1 (ABCB1/P-gp) (Homo sapiens, UniProt P08183); test: Vesicular transport inhibition assay; type: in vitro ADME; conditions: MDR1-mediated NMQ accumulation
T1 construct: expressed by SOLVO Biotechnology in mammalian (K and M) cells by chemical selection; purchased SOLVO Biotechnology; host or cells: mammalian (K and M) cells, overexpression by chemical selection
Procedure: (§1) Stock solutions of belvarafenib 2HCl (10 mM, 1.33 mM, 1 mM and 0.1 mM) were prepared in DMSO. Serial dilutions (7-step, 3-fold) were prepared in DMSO, and used as the test solutions in the inhibition assays (100-fold dilution). The dilution factor in substrate experiments was 100-fold.
(§2) Instruments used for detection include a Thermo Scientific Dionex UltiMate 3000 series UHPLC (Thermo Scientific, San Jose, CA) with a Thermo Scientific TSQ Quantum Access Max triple quadrupole MS; a Perkin Elmer MicroBeta2liquid scintillation counter (Perkin Elmer, Waltham MA) and a BMG Labtech FluoStar Omega multifunctional microplate reader (BMG Labtech, Offenburg, Germany).
(§3) Vesicular transport assays were performed with inside-out membrane vesicles prepared from cells overexpressing human ABC transporters. The transporter has been expressed by SOLVO Biotechnology in mammalian (K and M) cells by chemical selection.
(§4) Parameters of the vesicular transport assays are listed in Table 6 where: “BCRP” refers to breast cancer resistance protein; “MDR1” refers to multidrug resistance protein 1; “E3S” refers to Estrone-3-sulfate; and “NMQ” refers to N-methyl quinidine.
(§5) Belvarafenib 2HCl was incubated with membrane vesicle preparations (total protein: 50 μg/well for MDR1, and 25 µg/well for BCRP) and the probe substrate. Incubations were carried out in the presence of 4 mM ATP or AMP to distinguish between transporter-mediated uptake and passive diffusion into the vesicles. Belvarafenib 2HCl was added to the reaction mixture in 0.75 μL of solvent ([…] of the final incubation volume). Reaction mixtures were pre-incubated for 15 minutes at 37±1° C. (or 32±1° C. for BCRP). Reactions were initiated by the addition of 25 μL of 12 mM MgATP (or 12 mM AMP in assay buffer as a background control), preincubated separately. Reactions were quenched by the addition of 200 μL of ice-cold washing buffer and immediate filtration via glass fiber filters mounted to a 96-well plate (filter plate). The filters were washed (5×200 μL of ice-cold washing buffer), dried and the amount of substrate inside the filtered vesicles was determined by liquid scintillation counting.
(§6) The controls were as follows. Incubation with AMP provided background activity values for all data points. Incubation with probe substrate (solvent only) provided 100% activity values. A reference inhibitor served as positive control for inhibition.
(§7) For all wells the amount of the translocated probe substrate was determined in cpm. Relative activities were calculated using the following equation: Relative Activity %=(A−B)/(C−D)*100. A is the amount of translocated substrate in the presence of TA and ATP. B is the amount of translocated substrate in the presence of TA and AMP. C is the amount of translocated substrate in the presence of solvent and ATP. D is the amount of translocated substrate in the presence of solvent and AMP.
(§8) Microsoft Excel 2010 (Microsoft Corporation, Redmond, WA) was used for basic data processing and GraphPad Prism 5.0 (GraphPad Software Inc., San Diego, CA) was used for curve fitting and determination of reaction parameters. In vesicular transport inhibition assays, the IC50 (μM) was calculated, where applicable. IC50 was defined as the concentration of TA required to inhibit maximal activity by 50%. IC50 values were derived from a four parametric logistic equation [log(inhibitor) vs. response−variable slope]; the curve was fitted to the relative activity vs. TA concentration plot using non-linear regression.

BCRP (ABCG2) [7] = target: T2, BCRP (ABCG2) (Homo sapiens, UniProt Q9UNQ0); test: Vesicular transport inhibition assay; type: in vitro ADME; conditions: BCRP-mediated E3S accumulation
T2 construct: expressed by SOLVO Biotechnology in mammalian (K and M) cells by chemical selection; purchased SOLVO Biotechnology; host or cells: mammalian (K and M) cells, overexpression by chemical selection
T2 sequence (Q9UNQ0 1-655): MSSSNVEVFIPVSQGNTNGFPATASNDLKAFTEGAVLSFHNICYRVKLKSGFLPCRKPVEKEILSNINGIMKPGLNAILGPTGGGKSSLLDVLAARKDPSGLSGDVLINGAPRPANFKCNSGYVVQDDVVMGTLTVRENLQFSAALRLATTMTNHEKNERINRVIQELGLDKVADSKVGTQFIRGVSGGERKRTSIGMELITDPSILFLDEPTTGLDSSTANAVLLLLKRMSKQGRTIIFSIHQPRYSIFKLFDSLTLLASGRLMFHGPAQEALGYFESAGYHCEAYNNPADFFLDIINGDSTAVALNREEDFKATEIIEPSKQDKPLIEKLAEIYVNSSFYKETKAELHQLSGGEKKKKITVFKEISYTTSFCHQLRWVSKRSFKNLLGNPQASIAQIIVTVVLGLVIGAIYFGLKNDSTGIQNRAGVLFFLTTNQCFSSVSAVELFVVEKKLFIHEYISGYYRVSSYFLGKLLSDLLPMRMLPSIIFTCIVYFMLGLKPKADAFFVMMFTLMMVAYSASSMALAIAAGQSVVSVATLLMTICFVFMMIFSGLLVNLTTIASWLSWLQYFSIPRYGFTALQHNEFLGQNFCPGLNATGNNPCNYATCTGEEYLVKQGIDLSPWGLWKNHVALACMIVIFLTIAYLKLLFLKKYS
Procedure: as §1, §2, §3, §4, §5, §6, §7, §8

MDR1 (ABCB1/P-gp) [8] = target: T1, MDR1 (ABCB1/P-gp); test: Vesicular transport substrate assay; type: in vitro ADME
Procedure: as §1, §2, §3
(§9) Experimental method for vesicular transport substrate assay. The uptake of belvarafenib 2HCl into membrane vesicles was determined using inside-out membrane vesicles (total protein: 50 μg/well for MDR1, or 25 μg/well for BCRP) prepared from cells overexpressing BCRP or MDR1 ABC transporters as well as from control cells. Two incubation time points (2 and 20 min) and two concentrations (1 and 10 μM) of belvarafenib 2HCl were tested in the presence of ATP or AMP, to determine whether belvarafenib 2HCl is actively transported into the vesicles. Reaction mixtures as well as start reagents (MgATP and AMP solutions) were pre-incubated for 15 minutes at 32° C. for BCRP, and 37° C. for MDR1 assay. Reactions were initiated by addition of the start reagent (MgATP or AMP) to the appropriate wells. Reactions were quenched by the addition of 200 μL of ice-cold washing buffer and immediate filtration via glass fiber filters mounted to a 96-well plate (filter plate). The filters were washed 5×200 μL of ice-cold washing buffer and dried. The amount of accumulated belvarafenib 2HCl retained inside the vesicles was determined by LC-MS/MS detection after washing the vesicles 2 times with 100 μL MeOH:H2O (2:1).
(§10) In the vesicular transport substrate assays, the ATP-dependent transport of the TA as well as the ATP-dependent fold accumulation was calculated for each concentration and time point using the following equation, in both the transporter-containing and control vesicles:
(§11) ATP−dependent transport=nATP−NAMP Fold accumulation=nATP/nAMP
(§12) nATP is the amount of translocated TA in the presence of 4 mM ATP, in pmol/mg. nAMP is the amount of translocated TA in the presence of 4 mM AMP, in pmol/m. […]

BCRP (ABCG2) [9] = target: T2, BCRP (ABCG2); test: Vesicular transport substrate assay; type: in vitro ADME
Procedure: as §1, §2, §3, §9, §10, §11, §12

[10] = Stage III of Study MEK4592g, 18 patients
[11] = cobimetinib single agent, Study MEK4592g

T1 sequence (P08183 whole entry): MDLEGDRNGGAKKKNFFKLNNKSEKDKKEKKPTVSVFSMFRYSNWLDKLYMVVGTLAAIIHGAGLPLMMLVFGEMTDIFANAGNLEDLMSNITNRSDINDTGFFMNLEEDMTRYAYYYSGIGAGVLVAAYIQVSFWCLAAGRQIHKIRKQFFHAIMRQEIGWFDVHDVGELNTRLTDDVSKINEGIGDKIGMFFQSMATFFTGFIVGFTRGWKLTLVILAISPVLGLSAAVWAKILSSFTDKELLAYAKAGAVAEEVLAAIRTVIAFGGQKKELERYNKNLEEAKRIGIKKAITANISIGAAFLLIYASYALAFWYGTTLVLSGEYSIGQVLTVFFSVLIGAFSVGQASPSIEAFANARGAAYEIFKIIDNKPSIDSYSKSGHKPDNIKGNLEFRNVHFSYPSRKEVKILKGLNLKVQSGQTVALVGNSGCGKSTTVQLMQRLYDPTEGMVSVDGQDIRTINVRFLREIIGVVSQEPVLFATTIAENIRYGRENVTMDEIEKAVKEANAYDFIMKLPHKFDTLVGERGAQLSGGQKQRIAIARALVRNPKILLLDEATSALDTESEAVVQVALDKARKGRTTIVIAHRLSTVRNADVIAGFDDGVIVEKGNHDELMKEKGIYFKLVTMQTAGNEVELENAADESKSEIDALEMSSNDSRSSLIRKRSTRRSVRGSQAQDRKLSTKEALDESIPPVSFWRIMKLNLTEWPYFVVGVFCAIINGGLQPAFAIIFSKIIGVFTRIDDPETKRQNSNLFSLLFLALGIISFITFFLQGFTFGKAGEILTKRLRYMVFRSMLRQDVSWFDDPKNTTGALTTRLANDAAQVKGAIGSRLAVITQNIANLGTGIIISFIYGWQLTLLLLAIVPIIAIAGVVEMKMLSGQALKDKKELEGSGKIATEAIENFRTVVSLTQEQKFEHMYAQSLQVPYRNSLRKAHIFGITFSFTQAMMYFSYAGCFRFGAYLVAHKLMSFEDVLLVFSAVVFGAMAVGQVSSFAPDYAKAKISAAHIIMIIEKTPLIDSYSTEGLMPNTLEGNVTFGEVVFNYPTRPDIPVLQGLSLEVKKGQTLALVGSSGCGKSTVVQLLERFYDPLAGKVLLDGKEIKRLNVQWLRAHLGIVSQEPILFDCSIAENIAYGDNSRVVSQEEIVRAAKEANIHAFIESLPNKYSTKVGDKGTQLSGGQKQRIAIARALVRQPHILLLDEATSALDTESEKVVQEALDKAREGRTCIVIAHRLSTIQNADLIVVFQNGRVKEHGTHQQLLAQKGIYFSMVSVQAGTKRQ

## COC(=O)N[C@@H](C)CNc1nccc(-c2cn(C(C)C)nc2-c2cc(Cl)cc(NS(C)(=O)=O)c2F)n1 [Encorafenib]
[1]; literature values
  brain to plasma ratio: about 0.004
[1]
  B/P (nonclinical), percentage of brain exposure relative to plasma: 0.4%
P-gp/BCRP
  P-gp/BCRP efflux substrate?: Yes (P-gp + BCRP)
P-gp/BCRP; listed as encorafenib
  P-gp/BCRP efflux substrate?: is a P-gp and a BCRP efflux substrate

## CC(=O)Nc1cccc(-n2c(=O)n(C3CC3)c(=O)c3c(Nc4ccc(I)cc4F)n(C)c(=O)c(C)c32)c1 [Trametinib]
[1]
  B/P (nonclinical), percentage of brain exposure relative to plasma: 15%
P-gp/BCRP
  P-gp/BCRP efflux substrate?: Yes (P-gp + BCRP)

## C[C@@H](NC(=O)c1ncnc(N)c1Cl)c1ncc(C(=O)Nc2cc(C(F)(F)F)c(Cl)cn2)s1 [DAY101]
[1]
  B/P (nonclinical), percentage of brain exposure relative to plasma: 20-34% ^
P-gp/BCRP
  P-gp/BCRP efflux substrate?: Yes (BCRP)

## CC(C)(C)c1nc(-c2cccc(NS(=O)(=O)c3c(F)cccc3F)c2F)c(-c2ccnc(N)n2)s1 [Dabrafenib]
[1]
  B/P (nonclinical), percentage of brain exposure relative to plasma: 2-4%
P-gp/BCRP
  P-gp/BCRP efflux substrate?: Yes (P-gp + BCRP)
P-gp/BCRP; listed as dabrafenib
  P-gp/BCRP efflux substrate?: is a P-gp and a BCRP efflux substrate

## CCCS(=O)(=O)Nc1ccc(F)c(C(=O)c2c[nH]c3ncc(-c4ccc(Cl)cc4)cc23)c1F [Vemurafenib]
[1]
  B/P (nonclinical), percentage of brain exposure relative to plasma: 0.4-1% ^
P-gp/BCRP
  P-gp/BCRP efflux substrate?: Yes (P-gp + BCRP)
P-gp/BCRP; listed as vemurafenib
  P-gp/BCRP efflux substrate?: is a P-gp and a BCRP efflux substrate

## O=C(c1ccc(F)c(F)c1Nc1ccc(I)cc1F)N1CC(O)([C@@H]2CCCCN2)C1 [Cobimetinib]
[2]; [10]
  patients with SD as best overall response: 22.2%
  patients with unconfirmed tumor responses: 11.1%
[2]; [11]
  patients with confirmed partial response (PR): 6.2%
  patients with progressive disease: 41.2%
[3]
  tumor regression: up to 100%
[1]
  B/P (nonclinical), percentage of brain exposure relative to plasma: 30%
P-gp/BCRP
  P-gp/BCRP efflux substrate?: Yes (P-gp)
[4]
  food effect on pharmacokinetics, fed state compared with fasted state: not altered
[5]
  binding to plasma proteins: 95%

## Cn1cnc2c(F)c(Nc3ccc(Br)cc3Cl)c(C(=O)NOCCO)cc21 [Selumetinib]
[1]
  B/P (nonclinical), percentage of brain exposure relative to plasma: 2%
P-gp/BCRP
  P-gp/BCRP efflux substrate?: Yes (P-gp + BCRP)

## Cc1ccc2c(Nc3cccc(Cl)c3F)nccc2c1NC(=O)c1csc2c(N)ncnc12 [belvarafenib 2HCl]
MDR1 (ABCB1/P-gp) [6]; estimated, bottom constrain (0%), inhibition did not reach 50%
  IC50: 29.6 µM
MDR1 (ABCB1/P-gp) [6]; human, probe N-methyl quinidine (NMQ), highest applied concentration (13.3 μM), read-out: Maximum inhibition (% of control)
  inhibition at 13.3 µM: 32%
BCRP (ABCG2) [7]; 0.02-13.3 μM
  Maximum inhibition (% of control): 99.8%
BCRP (ABCG2) [7]; estimated, top of the curve constrained at 100%
  IC50: 0.011 µM
BCRP (ABCG2) [7]; human, probe estrone-3-sulfate (E3S), 0.02 μM, read-out: inhibition at the lowest investigated concentration
  inhibition at 0.02 µM: 70%
MDR1 (ABCB1/P-gp) [8]; 1 and 10 μM, 2 and 20 min
  Maximum ATP dependent fold accumulation in transporter expressing vesicles: 1.23
MDR1 (ABCB1/P-gp) [8]; MDR1 VT
  Substrate: probably not a substrate; also recorded: Unlikely
BCRP (ABCG2) [9]; 1 and 10 μM, 2 and 20 min
  Maximum ATP dependent fold accumulation in transporter expressing vesicles: 1.51
BCRP (ABCG2) [9]; BCRP VT
  Substrate: probably not a substrate; also recorded: Unlikely
